Data set [1] is described as follows: Stability in human liver microsomes. It is filed as in vitro ADME. The procedure: Both mouse and human liver microsomes were obtained from Merck KGaA, (Darmstadt, Germany), Cat. No. M9441 (Mouse liver microsomes) and M0317 (Human liver microsomes). Assays were conducted in triplicate in 96-deep well polypropylene plates. The compounds were incubated with pooled liver microsomes from male CD-1 mice (Life Technologies, Grand Island, N.Y.), tetra-sodium NADPH and magnesium chloride for 60 min at 37° C. with gentle shaking. At five time points, reaction mixture aliquots were transferred to 96-shallow well stop plates on ice containing acetonitrile with 0.1 μM propafenone. […] Standard curves for test compound were generated using 5 concentrations in triplicate that were processed as above but with zero incubation time. Stop plates were centrifuged at 2000 g for 10 min and then supernatant aliquots were transferred to a Waters Aquity® UPLC 700 μL 96-well sample plate with cap mat (Waters, Milford, Mass.). The amount of compound remaining in the supernatant was quantified by LC/MS/MS using a Waters Xevo TQ MS (electrospray positive mode) coupled to a Waters Aquity® UPLC (BEH column, C18). Propafenone was used as the internal standard. GraphPad® Prism v 5.04 was used for nonlinear fitting of time course data to generate t1/2 values.
(Liver microsomes are vesicles of endoplasmic reticulum, rich in cytochrome P450 enzymes.)

Data set [2] is described as follows: Maximum kinetic aqueous solubility. Particulars: phosphate buffer with 2% DMSO, kinetic from dmso stock, 2% DMSO/PBS, pH 7.4, read-out: maximum kinetic aqueous solubility (saturation). It is filed as physicochemical. As to the method:
Solubility assays were performed using Millipore MultiScreen® HTS-PFC Filter Plates designed for solubility assays (EMD Millipore, Billerica, Mass.). Assays were run in triplicate. The 96-well plates consist of two chambers separated by a filter. Liquid handling was performed using JANUS® Verispan and MTD workstations (Perkin Elmer, Waltham, Mass.). 4 μL of MAK-1 or MAK-6 solution (10 mM in DMSO) was added to 196 μL of phosphate buffer (45 mM potassium phosphate, 45 mM sodium acetate, 45 mM ethanolamine, pH=7.4) in the top chamber to give a final DMSO concentration of 2% and a theoretical drug concentration of 200 μM. Plates were gently shaken for 90 min and then subjected to vacuum. Insoluble drug is captured on the filter. 160 μL of the filtrate is transferred to 96-well Griener UV Star® analysis plates (Sigma-Aldrich, St. Louis, Mo.) containing 40 μL of acetonitrile. The test compound concentration in the filtrate is measured by UV absorbance on a Spectromax® Plus microplate reader (Molecular Devices, Sunnyvale, Calif.) using Softmax Pro software v.5.4.5. Absorbances at 5 wavelengths (280, 300, 320, 340, and 360 nm) were summed to generate the UV signal. Standard curves were generated by adding 4 μL of five concentrations of test compound in DMSO to 40 μL of acetonitrile in UV Star plates followed by 156 μL of the appropriate solubility medium. […]

The test system of a further data set is MCF7 spheroids. The experiment in a line: Mitochondrial membrane potential assay (JC-1), MCF7 spheroids. Type of data set: cell-based, human. Particulars: 48 h post treatment at IC50, control 18.01±0.58%. As to the method:
The mitochondrial membrane potential was investigated in response to the treatment with MAK compounds. This assay depends on the measurement of the aggregate fluorescence for Tetraethylbenzimidazolylcarbocyanine iodide (JC-1). This cationic dye accumulates in the energized mitochondria, and the increase in aggregate fluorescence indicates mitochondrial […] while the reduction indicates the depolarization state.
After growing the cells and treating them with MAK compound for 48 hours, 2 μM of JC-1 final concentration was added and the mixture was incubated for 1 hour at 37° C. in presence of 5% CO2. Then, the samples were analyzed using flow cytometry. Mean values and standard deviation of replicates were calculated in comparison to the control group.

A further data set has as its system T47D spheroids. The experiment in a line: Live and dead assay of tumor spheroids, T47D. Type of data set: cell-based, human. Particulars: 48 h post treatment, control 2.60±0.31%. The procedure:
The Live/Dead assay contains a mixture of two staining fluorescent dyes that label live and dead cells to enable differentiation between them. The cell viability of the cells in response to the treatment with MAK compounds was examined. The cells were grown for 48 hours and treated with MAK compound for additional 48 hours, then Cytox RED solution reagent was added. After incubation at 37° C. under 5% CO2 for 1 hour, the samples were immediately analyzed by flow cytometry. Mean values and standard deviation of replicates were calculated in comparison to the control group.

Data set [3] relates to human skin fibroblasts (HSF). The experiment in a line: Cytotoxicity on human skin fibroblasts (SRB method). Type of data set: cell-based. As to the method:
In addition to have a good physicochemical profile, it is important for a studied lead to differentiate between cancer cells and highly proliferating non-cancerous cells. Therefore, we assessed compounds MAK-1 and MAK-6 for both the in silico and in vitro physicochemical characteristics as well as for cytotoxic effect on human skin fibroblasts (SKF) cell lines. Cytotoxicity was determined using Sulforhodamine B (SRB) method. Exponentially growing human skin fibroblast cells (Nawah Scientific, Cairo, Egypt) were collected using 0.25% Trypsin-EDTA and were then seeded in 96-well plates at a density of 1000-2000 cells/well in 10% FBS and penicillin/streptomycin supplemented RPMI-1640 medium. After 24 h, cells were treated with different concentrations of test compounds and incubated for 72 h at 37° C. in a humidified atmosphere containing 5% CO2. Next, the cells were fixed by adding trichloroacetic acid (TCA, 10% final conc. in wells) directly to the wells and incubated for 1 h at 4° C., then cells were washed with distilled water 5 times to remove excess TCA, media, serum proteins, and metabolites, followed by air drying. After that, the fixed cells were stained with 0.4% SRB dissolved in 1% acetic acid for 10 min at room temperature, and excess stain was removed by quickly rinsing with 1% acetic acid. The residual acetic acid was removed completely by air drying the plates for 24 h, and the dye was solubilized with Tris buffer (pH=7.4, 10 mM) for 5 min on a shaker at 1600 rpm. The optical density (OD) of each well was measured spectrophotometrically at 564 nm with an ELISA microplate reader (ChroMate-4300, FL, USA). The IC50 values were calculated according to the equation for Boltzman sigmoidal concentration—response curve using the nonlinear regression fitting models (Graph Pad, Prism Version 5).
In general terms: Sulforhodamine B stains cellular protein and so reports cell mass.

Converted amounts (≈) assume the structure as drawn.

For the compound `COc1cccc(C(=O)Nc2ccc(CC(=O)NCc3ccccc3)cc2)c1` [MAK-1, N-(4-(2-(benzylamino)-2-oxoethyl)phenyl)-3-methoxybenzamide], the half-life in data set [1] (human, liver microsomes, in the presence of NADPH, 37° C., read-out: stability to oxidative metabolism in human liver microsomes (t1/2)) stood at 35 min. The “stability in human liver microsomes” value in data set [1] (lacking (in absence of) NADPH) was “a trend that was not repeated”. The solubility kinetic at 90 min in data set [2] worked out at 9.4 µM (≈ 3.52 µg/mL). The “depolarized cells (mitochondrial membrane), mean±SEM” value with MCF7 spheroids was 24.77±0.65%. Further, the “dead rate (dead cells), mean±SEM” value with T47D spheroids came out at 42.43±0.49%. Moreover, in data set [3] (HSF vs MCF7), the “normal cells inhibited at x-fold higher concentrations than MCF7 breast cancer cells” value came out at 7 fold.
With `O=C(Cc1ccc(NC(=O)c2cccc(Cl)c2)cn1)NCc1ccccc1` [MAK-6, N-(6-(2-(benzylamino)-2-oxoethyl)pyridin-3-yl)-3-chlorobenzamide], the “stability in human liver microsomes” value is “highly stable” in data set [1] (in presence of NADPH, result in words) and “highly stable” in data set [1] (lacking (in absence of) NADPH). The solubility kinetic at 90 min in data set [2] was 3.7 µM (≈ 1.41 µg/mL). For the same compound, in the data set with MCF7 spheroids, the “depolarized cells (mitochondrial membrane), mean±SEM” value is 28.73±0.82%. Moreover, the “dead rate (dead cells), mean±SEM” value in the data set on T47D spheroids was 37.97±0.27%. The “safety to normal cells (human skin fibroblasts)” value in data set [3] (HSF, SRB, 72 h) is reported as “highly safe”.

Values taken from patent publication US11479536B1 (King Abdulaziz University, priority 2022, dated 2022).
